Patent US20090005395A1 (Solvay Pharmaceuticals, B.V., priority 2007, published 2009)
Where two headings read alike, the source gives them in different places.

Experiments:
[1] = Plasma and brain concentrations of sildenafil and its N-oxide after i.v. or p.o. administration to mice (LC-MS/MS); assay type: in vivo, male NMRI mice; conditions: sildenafil administered i.v. or p.o.
Method: Sildenafil and its N-oxide were analyzed in mouse plasma and brain samples using a generic bioanalytical method comprising protein precipitation and HPLC with MS/MS detection.
Sample preparation: Proteins in 100 μl plasma were precipitated with acetonitrile, and 5 μl samples of the obtained solution were analyzed. Complete brains were homogenized and centrifuged, and 10 μl samples of the supernatant were analyzed.
Liquid Chromatography-Tandem Mass Spectrometry (LC-MS/MS) was performed using a Sciex API4000 LC-MS/MS. Quantification of the samples was done using extracted calibration samples, treated the same as the study samples in the range of 1-5000 ng/ml and 5.0-5000 ng/brain for plasma and brains samples, respectively. Compound peak area was used for quantification. The calibration curves were fitted to the model y=A+Bx+Cx^2 (y is the peak area of the analyte, x is the nominal calibration level in ng/ml (plasma) or ng/g (brain), A is the intercept, B is the slope and C is the description of the curvature). 1/x^2 weighing was used. LC-MS/MS system performance was monitored using a reference solution injected at standard intervals. The method use for testing was not validated in detail, therefore the reported concentrations were good estimations. The Lower Limit Of Quantification (LLOQ) was established at 1.00 ng/ml and 5.00 ng/brain, for plasma and brain samples, respectively. […]

[2] = Plasma pharmacokinetics of sildenafil and its N-oxide; assay type: in vivo; conditions: male, NMRI, mouse, mice, plasma; for AUC: Tend = 7 hrs, read-out: AUC0→end; for AUC(0-inf): Tend = ∞
Method: Liquid Chromatography-Tandem Mass Spectrometry (LC-MS/MS) was performed using a Sciex API4000 LC-MS/MS. […] Compound peak area was used for quantification. The calibration curves were fitted to the model y=A+Bx+Cx^2 (y is the peak area of the analyte, x is the nominal calibration level in ng/ml (plasma) or ng/g (brain), A is the intercept, B is the slope and C is the description of the curvature). 1/x^2 weighing was used. LC-MS/MS system performance was monitored using a reference solution injected at standard intervals. […] The Lower Limit Of Quantification (LLOQ) was established at 1.00 ng/ml and 5.00 ng/brain, for plasma and brain samples, respectively. Reversed phase HPLC was performed using gradient elution by a Hypersil BDS C18 100×4.6 mm 3 μm analytical column, with a temperature of 45° C. and a flow of 1.00 ml/min: […]

PDE-V = PDE-V (Homo sapiens, UniProt O76074); conditions: cited from earlier work
CYP3A4 = CYP3A4 (Homo sapiens, UniProt P08684); conditions: cited from earlier work
CYP3A4, sequence (P08684 whole entry): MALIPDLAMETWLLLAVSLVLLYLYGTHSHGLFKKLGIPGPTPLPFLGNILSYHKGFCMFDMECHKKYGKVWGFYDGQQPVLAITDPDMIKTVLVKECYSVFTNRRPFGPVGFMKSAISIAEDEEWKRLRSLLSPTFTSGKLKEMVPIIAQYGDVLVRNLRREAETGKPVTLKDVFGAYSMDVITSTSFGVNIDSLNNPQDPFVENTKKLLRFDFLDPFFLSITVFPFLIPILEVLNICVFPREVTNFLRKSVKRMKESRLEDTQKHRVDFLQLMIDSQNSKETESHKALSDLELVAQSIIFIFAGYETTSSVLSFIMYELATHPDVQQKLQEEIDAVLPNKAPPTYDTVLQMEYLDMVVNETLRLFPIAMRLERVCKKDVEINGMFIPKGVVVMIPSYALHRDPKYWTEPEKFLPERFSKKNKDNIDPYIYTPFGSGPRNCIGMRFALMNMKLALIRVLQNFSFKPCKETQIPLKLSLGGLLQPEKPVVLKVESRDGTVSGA

CYP2C9 = CYP2C9 (Homo sapiens, UniProt P11712); conditions: cited from earlier work
CYP2C9, sequence (P11712 whole entry): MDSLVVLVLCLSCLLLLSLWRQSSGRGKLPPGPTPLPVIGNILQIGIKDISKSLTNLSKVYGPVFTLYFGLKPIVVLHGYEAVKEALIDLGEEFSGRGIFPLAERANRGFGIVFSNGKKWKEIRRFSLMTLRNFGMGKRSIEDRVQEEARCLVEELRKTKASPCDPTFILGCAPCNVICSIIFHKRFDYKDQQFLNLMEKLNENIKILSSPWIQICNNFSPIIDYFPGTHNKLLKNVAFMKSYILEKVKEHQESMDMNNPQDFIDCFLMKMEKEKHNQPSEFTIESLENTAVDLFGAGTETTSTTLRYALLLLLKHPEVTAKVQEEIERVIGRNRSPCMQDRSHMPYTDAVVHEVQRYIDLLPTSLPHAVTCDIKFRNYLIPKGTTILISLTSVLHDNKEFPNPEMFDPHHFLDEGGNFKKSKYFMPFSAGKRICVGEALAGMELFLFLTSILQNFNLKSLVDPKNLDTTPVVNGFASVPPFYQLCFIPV

PDE-I = experiment: In vitro inhibition of phosphodiesterases (CEREP): PDE-I; conditions: bovine brain
PDE-IV = experiment: In vitro inhibition of phosphodiesterases (CEREP): PDE-IV; conditions: human U-937 monocytes
[3] = in vivo; cited from earlier work

CCCc1nn(C)c2c(=O)[nH]c(-c3cc(S(=O)(=O)N4CCN(C)CC4)ccc3OCC)nc12 [Sildenafil, 1-[4-ethoxy-3-(6,7-dihydro-1-methyl-7-oxo-3-propyl-1H-pyrazolo[4,3-d]pyrimidin-5-yl)phenyl-sulfonyl]-4-methylpiperazine, reference compound]
N-oxide in the brain [1]: no trace can be found at all
Tmax ([2]; iv, i.v. 1 mg/kg): 0 h
half-life ([2]; iv, i.v. 1 mg/kg): 1.4 h
AUC ([2]; iv, i.v. 1 mg/kg): 232 ng·h/mL
AUC(0-inf) ([2]; iv, i.v. 1 mg/kg): 232 ng·h/mL
Cmax ([2]; iv, i.v. 1 mg/kg, extrapolated to T0 (time zero), read-out: Cmax (C0)): 538 ng/mL
Vd ([2]; iv, i.v. 1 mg/kg): 8.9 L/kg
clearance ([2]; iv, i.v. 1 mg/kg): 71.8 mL/min/kg
bioavailability ([2]; po, 10 mg/kg, i.v.): 28.9%
Tmax ([2]; po, p.o. 10 mg/kg): 0.2 h
half-life ([2]; po, p.o. 10 mg/kg): 1.1 h
AUC ([2]; po, p.o. 10 mg/kg): 661 ng·h/mL
AUC(0-inf) ([2]; po, p.o. 10 mg/kg): 670 ng·h/mL
Cmax ([2]; po, p.o. 10 mg/kg, read-out: Cmax): 533 ng/mL
more potent on PDE-V than on PDE-1 (PDE-V; in vitro, versus PDE-1): > 80 fold
more potent on PDE-V than on PDE-II (PDE-V; in vitro, versus PDE-II): > 700 fold
more potent on PDE-V than on PDE-IV (PDE-V; in vitro, versus PDE-IV): > 700 fold
more potent on PDE-V than on PDE-IX (PDE-V; in vitro, versus PDE-IX): > 700 fold
more potent on PDE-V than on PDE-VI (PDE-V; in vitro, versus PDE-VI): about 10 fold
more potent on PDE-V than on PDE-VII (PDE-V; in vitro, versus PDE-VII): > 700 fold
more potent on PDE-V than on PDE-VIII (PDE-V; in vitro, versus PDE-VIII): > 700 fold
more potent on PDE-V than on PDE-X (PDE-V; in vitro, versus PDE-X): > 700 fold
more potent on PDE-V than on PDE-XI (PDE-V; in vitro, versus PDE-XI): > 700 fold
clearance route by hepatic microsomal iso-enzyme CYP3A4 (CYP3A4): major route
clearance route by hepatic microsomal iso-enzyme CYP2C9 (CYP2C9): minor route
pIC50 PDE-I (PDE-I): 5.0
pIC50 PDE-IV (PDE-IV): 4.8

CCCc1nn(C)c2c(=O)[nH]c(-c3cc(S(=O)(=O)N4CCNCC4)ccc3OCC)nc12 [UK 103,320, 1-[[3-(6,7-dihydro-1-methyl-7-oxo-3-propyl-1H-pyrazolo[4,3-d]pyrimidin-5-yl)-4-ethoxy-phenyl]sulfonyl]-piperazine]
in vitro potency for PDE-V relative to the parent drug (PDE-V; of sildenafil): approximately 50%
potency relative to sildenafil (PDE-V; reported): about half
Plasma concentrations of the metabolite relative to those seen for sildenafil [3]: approximately 40%
